Where two headings read alike, the source gives them in different places.

We go through two molecules from US20050215634A1 (priority 2003, published 2005).

The subject of one series is HVECs. The class given is cell-based, human.
The next series relates to HIV-1. It counts as cell-based.
Series [1] relates to rabbit RBCs. Description: Streptolysin O-induced hemolysis on RBC agar plates. The class given is cell-based. Conditions: GML 10 μg/ml in agar, Group A Streptococci stabbed into agar. The protocol: GML (10 μg/ml) was incorporated into culture plates containing solid agar and rabbit RBCs suspended in the agar. The effect of GML on streptolysin O-induced hemolysis was tested by stabbing the Group A Streptococci into the agar so as to permit the anaerobic growth of the bacteria beneath the surface of the agar and thereby allow streptolysin O to function.

Series [2] deals with rabbit RBCs. Kind of series: Streptolysin S-induced hemolysis on RBC agar plates. It counts as cell-based. Conditions: rabbit blood agar plates containing GML, surface culture of Group A Streptococci. The protocol: The effect of GML on streptolysin S-induced hemolysis was assayed by direct culturing of Streptococci on the surface of the RBC-containing agar plates.
Setting [3] is: GML 20 μg/ml + SPEA 100 μg/ml, 6 hours.
The mark [4] stands for this setting: GML 20 μg/ml + TSST-1 100 μg/ml, 6 hours.

As to `CCCCCCCCCCCC(=O)OCC(O)CO` (stereo not shown) [GML, glycerol monolaurate], in the series on HVECs, the “IL-8 (pg/ml ± SE)” value is “None Detected” and the “MIP-3α (pg/ml ± SE)” value is listed as “None Detected”. Also, in the series on HVECs (setting [3]), the “IL-8 (pg/ml ± SE)” value is on record as “None Detected” and the “MIP-3α (pg/ml ± SE)” value is listed as “None Detected”. Also, in the series with HVECs (setting [4]), the “IL-8 (pg/ml ± SE)” value is given as “None Detected” and the “MIP-3α (pg/ml ± SE)” value is reported as “None Detected”. In addition, the “Cells expressing HIV-1 p24” value in the series on HIV-1 was “rare and no cells expressing p24”. In the series on human PBMC, the Cell viability entry is reported as “preserved” and the “Total number of cells versus control sample without GML” value is reported as “significantly less”. Further, the “Streptolysin O-induced hemolysis of RBCs” value in the series on rabbit RBCs [1] is “completely prevented hemolysis”. Also, the “Streptolysin S-induced hemolysis” value in the series on rabbit RBCs [2] is on record as “completely inhibited”.

In the case of Ovalbumin [reference compound], in the series with HVECs, the “IL-8 (pg/ml ± SE)” value was 36 ± 1.5 pg/mL and the “MIP-3α (pg/ml ± SE)” value stood at 12 ± 1.8 pg/mL.
